Among the data in patent US20240191244A1 (priority 2020, published 2024) are strain growth rate values, retold here.

SMILES strings stand for the structures.

In this assay the test system is wild-type HN08 strain. Format: cell-based, C. siamense.

Regarding `N#Cc1c[nH]cc1-c1cccc2c1OC(F)(F)O2` [fludioxonil], the strain growth rate result is given as “gradually decreases”.
